What all share (experiment): biochemical
Experiment [1] concerns the target DR1 (DRB1*0101) (Homo sapiens, UniProt P01903+P01911, A100R/D57E/F55L/F60I/F76Y/I96L/L162R/M171V/P40L/Q125E/R42F/V115G/Y59C). The class given is binding.
Experiment [2] deals with DR4w4 (DRB1*0401) (Homo sapiens, UniProt P01903+P01911, A100K/A169T/F76Y/I96L/K127E/L162R/M171V/N62H/P40V/Q125Y/R42H/S133A/S149N/S66Y/V115G/V209L/W38E). The class given is binding.
Experiment [3] concerns the target DR7 (DRB1*0701) (Homo sapiens, UniProt P01903+P01911, A100R/A102G/A103Q/D57E/D86V/E43K/F76Y/K127E/L162R/M171V/P40G/Q125H/Q99D/R33Q/R42Y/R54Q/S133A/S66F/T210M/V115G/Y107V/Y59L/Y89S). The class given is binding.
The target of experiment [4] is DRB1*0301 (Homo sapiens, UniProt P01903+P01911, A100K/A102G/A103R/A169T/F55Y/I96L/K41T/L162R/M171V/P40S/Q125H/Q178H/Q39Y/R42S/S66N/T106N/T262R/W38E/Y61H). The format is binding.
Experiment [5] deals with DRB1*0405 (Homo sapiens, UniProt P01903+P01911, A100R/A169T/D86S/F76Y/I96L/K127E/L162R/M171V/N62H/P40V/Q125Y/R42H/S133A/S149N/S66Y/V115G/V209L/W38E). The class given is binding.
In experiment [6] the target is DRB1*0802 (Homo sapiens, UniProt P01903+P01911, A100R/A103L/A169T/F76Y/H45Y/I96F/K41T/L162R/M171V/P40S/Q125H/Q178H/Q39Y/Q99D/R218S/R42G/S66Y/V115G/W38E). The format is binding.
Experiment [7] has as its target DRB1*0901 (Homo sapiens, UniProt P01903+P01911, A100R/A103E/D57H/D86V/F55Y/F60I/F76Y/I96F/K127E/L162R/M171V/P40D/Q125H/Q99R/R33Q/R42F/S133A/S66N/T210M/V115G/W38K/Y107V/Y59G/Y89S). The format is binding.
Experiment [8] deals with DRB1*1201 (Homo sapiens, UniProt P01903+P01911, A100R/A169T/D57E/D86V/F55L/H45Y/K41T/L162R/M171V/P40S/Q125H/Q178H/Q39Y/Q99D/R42G/S66L/T262R/V114A/V67L/W38E/Y59H/Y61H/Y89S). The format is binding.
The target in experiment [9] is DRB1*1302 (Homo sapiens, UniProt P01903+P01911, A100E/A169T/K41T/L162R/M171V/P40S/Q125H/Q178H/Q39Y/Q99D/R42S/S66N/T262R/V115G/W38E/Y61H). The class given is binding.
The target of experiment [10] is DRB1*1501 (Homo sapiens, UniProt P01903+P01911). The class given is binding.
In experiment [11] the target is DRB3*0101 (Homo sapiens, UniProt P01903+P79483). The format is binding.
For experiment [12], the target named is DRB4*0101 (Homo sapiens, UniProt P01903+P13762, G164S). The class given is binding.
Experiment [13] concerns the target DRB5*0101 (Homo sapiens, UniProt P01903+Q30154). Conditions: Binding affinity DRB5 *0101.
For experiment [14], the target named is DRB1*1101 (Homo sapiens, UniProt P01903+P01911, A100R/A169T/A87E/I96F/K41T/L162R/M171V/P40S/Q125H/Q178H/Q39Y/Q99D/R42S/S66Y/T262R/V115G/W38E). Conditions: Binding affinity DRB1 *1101.

No end group written: not given here.

Sequence of DRB1*1302 (P01903 26-254 limits assumed, other chains not shown): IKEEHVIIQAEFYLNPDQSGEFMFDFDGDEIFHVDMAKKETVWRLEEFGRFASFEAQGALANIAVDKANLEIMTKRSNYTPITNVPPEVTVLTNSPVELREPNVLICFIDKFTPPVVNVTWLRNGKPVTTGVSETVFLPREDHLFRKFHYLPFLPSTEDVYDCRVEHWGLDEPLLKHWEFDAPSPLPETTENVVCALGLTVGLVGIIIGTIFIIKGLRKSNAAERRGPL
Sequence of DRB1*1101 (P01903 26-254 limits assumed, other chains not shown): as above
Sequence of DRB1*0301 (P01903 26-254 limits assumed, other chains not shown): as above

For CIHSTATDLRTLQQM [Peptide 1543.45], the IC50 – broadly, the concentration that gives 50% inhibition – in experiment [1] was determined as 0.448 µM; in [2], 0.014 µM; in experiment [3], 0.459 µM; in experiment [4], 0.213 µM; in experiment [5], 0.37 µM; in experiment [6] it was 0.493 µM. Besides, the IC50 in experiment [7] is 19 µM; in [8], 4.51 µM; in [9], 2.99 µM; in experiment [10] it was 15 µM; in experiment [11], over 20 µM; in experiment [12], 0.159 µM. In experiment [13], the IC50 is 2.45 µM.

Consider DGVSHAQLPARRAEP [Peptide 1543.18], for which the half-maximal inhibitory concentration (IC50) in experiment [2] is over 20 µM; in [3], over 20 µM; in experiment [4], 2.48 µM; in experiment [5], over 20 µM; in [6] it was over 20 µM; in experiment [7], over 20 µM. Besides, the IC50 was over 20 µM in [8]; over 20 µM in [9]; over 20 µM in [10]; over 20 µM in [11]; 1.93 µM in [12]; over 20 µM in experiment [14]. In [13], this sequence came in with an IC50 of 0.392 µM.

EDLRTLQQLFLSTLS [Peptide 1543.21]: the IC50 in experiment [1] worked out at 0.02 µM; in experiment [2] it was 0.034 µM; in experiment [3], 0.39 µM; in [4] it was 6.77 µM; in experiment [5] it was 0.582 µM; in [6], 12.8 µM. The concentration for half-maximal inhibition (IC50) is 15.5 µM in experiment [7]; 0.958 µM in experiment [8]; 0.0075 µM in [9]; 0.141 µM in experiment [10]; over 20 µM in [11]; 0.017 µM in experiment [12]. The IC50 in experiment [14] is 0.279 µM; in [13], over 20 µM.

GCWRQTSREPRESTV [Peptide 1543.46]: the IC50 was 2.64 µM in experiment [1]; 1.84 µM in [2]; 0.072 µM in experiment [3]; 0.902 µM in [4]; 2.3 µM in experiment [5]; 0.356 µM in experiment [6]. Besides, the 50% inhibitory concentration (IC50) is 3.2 µM in experiment [7]; over 20 µM in [8]; over 20 µM in [9]; over 20 µM in [10]; over 20 µM in experiment [11]; over 20 µM in [12]. Further, the IC50 in experiment [14] amounted to 0.144 µM; in experiment [13], 4.27 µM.

As to QSTQVDIRILQELLM [Peptide 1543.11], the half-maximal inhibitory concentration (IC50) was 0.544 µM in [1]; 4.56 µM in experiment [2]; 5.39 µM in experiment [3]; 2.71 µM in experiment [4]; 3.99 µM in experiment [5]; over 20 µM in experiment [7]. Moreover, the concentration for half-maximal inhibition (IC50) was 2.34 µM in experiment [8]; 0.607 µM in experiment [9]; over 20 µM in experiment [10]; over 20 µM in experiment [11]; 0.18 µM in [12]; 6.48 µM in experiment [14]. Moreover, the IC50 in [13] was over 20 µM.

Take RHLDKKQRFHNIRGR [Peptide 1543.26]: the concentration for half-maximal inhibition (IC50) was found to be 0.556 µM in experiment [1]; 6.2 µM in [2]; 0.591 µM in [3]; 5.21 µM in [4]; 1.55 µM in [5]; 7.72 µM in experiment [6]. Moreover, the IC50 in experiment [7], in experiment [8], in experiment [9], in experiment [10], in experiment [11] and in [12] was over 20 µM throughout. In [13], this sequence had an IC50 of 5.76 µM.

Take RVCLLFYSKVRKYRY [Peptide 1543.54]: the IC50 came out at 0.299 µM in experiment [2]; 0.232 µM in experiment [3]; 0.071 µM in experiment [4]; 0.233 µM in experiment [5]; 0.656 µM in experiment [7]; 0.603 µM in experiment [8]. The IC50 amounted to 0.089 µM in experiment [9]; 0.717 µM in experiment [10]; 0.868 µM in experiment [11]; 7.74 µM in [12]; 4.26 µM in experiment [14]; 3.85 µM in experiment [13].
